Read-outs that look alike come from different tables or passages of the source.
Legend:
[1] = system: creatine phosphate concentration in the myocardium; assay: Cardio-protective action against hypoxic cardiac metabolism disorders, oral, rats; type: in vivo, rat (Wistar); details: compounds 2-40 mg/kg, verapamil up to 40 mg/kg
Description: A drastic depletion of energy-rich phosphates in the mycocardium of anesthetized rats (Wistar, weight: 250-350 g, anesthetic: thiobutabarbital 100 mg/kg i.p.) was produced by standardized respiration with an oxygen-deficient mixture (2% of O2).
The test substances were administered to the still conscious animals 6 hours before the oxygen-deficient respiration. The percentage difference between the creatine phosphate concentration in the myocardium of animals pretreated with the test substance and that of the untreated hypoxic control animals was determined.

[2] = system: passive cutaneous anaphylaxis (PCA); assay: Antiallergic action, passive cutaneous anaphylaxis (PCA) in rats, oral; type: in vivo, rat (male); details: for % inhibition (diameter of colored spot, PCA): 21.5 mg/kg oral
Description: The model of passive cutaneous anaphylaxis (PCA) was used for this test.
Anesthetized male rats (100-140 g) were sensitized by intradermal injection (shaven dorsal skin) of 0.1 ml of an ovalbumin antiserum. After a sensitizing period of about 48 hours, they were treated with the test substances (oral administration). After various latency periods (2, 6, 12 and 24 hours), the experimental animals were injected intravenously with an antigen/Evans blue solution. The animals were sacrificed in each case 30 minutes after the injection, and the dorsal skin was removed and the circular blue stain on the inner surface measured.
The antiallergic action was quoted as the relative inhibition (Δ%) of the diameter of the colored spot.

[3] = system: collagen-induced platelet aggregation; assay: Platelet aggregation-inhibiting action after oral administration to rats; details: Rattus norvegicus, 1 h, read-out: Inhibition of aggregation, ED 33%
Description: The substances were administered orally to male Sprague-Dawley rats (200-250 g). 1 hour after administration, samples of blood were taken under ether anesthetic, and platelet-rich plasma was obtained by centrifugation (300 g, 10 minutes at 4° C.). The platelet aggregation was measured photometrically, with the addition of MgCl2 and (end concentration of 10 mmoles/l) and Collagen Stago (end concentration of 0.02 mg/ml), in a Mark 3 Born Aggregometer. The maximum change in extinction/second was used as a measure of the aggregation.

systolic blood pressure = assay: Antihypertensive action, spontaneously hypertensive rats (SHR), oral; type: in vivo; details: for Lowering of systolic blood pressure, R.A. (relative activity; verapamil = 1.00) / ED20: SHR, peroral; for ED20: Rattus norvegicus, po, read-out: Lowering of systolic blood pressure, ED 20%; for Antihypertensive action (in words): after 24 hours, SH rats, verapamil at 100 mg/kg
Description: The substances were administered orally to male spontaneously hypertensive rats (SHR) of the Okamoto strain (weight: 300-400 g). The systolic blood pressure was determined non-operatively on the tails of the rats by piezo-crystal measurements before and 2, 6, 24 and, where relevant, 30 hours after administration.
The dose which reduced the systolic pressure by 20%, taking into consideration the values from untreated control animals, was taken as the ED 20%.

Q: How did the “Cardio-protective action (in words)” value [1] turn out when “1-(3,5-Diethoxyphenyl)-3-methylaza-7-cyano-7-(3-ethoxyphenyl)-docosane [Example 68]” was run?
A: particularly powerful action

Q: For `CCCCCCCCCCCCC(C#N)(CCCN(C)CCc1cccc(OC)c1)c1cccc(OC)c1` (stereo not drawn) [Example 3, 1,7-bis-(3-Methoxyphenyl)-3-methylaza-7-cyano-nonadecane], which “% inhibition (diameter of colored spot, PCA)” value (shortened to “% inhibition”) ([2]; latency period 2 hours) is on record?
A: 15%

Q: And the “% inhibition” value ([2]; latency period 6 hours)?
A: 40%

Q: What about the “% inhibition” value ([2]; latency period 12 hours) of the same molecule?
A: 83%

Q: What about the “% inhibition” value ([2]; latency period 24 hours) of the same molecule?
A: 68%

Q: And the “Antiallergic action (in words)” value ([2]; after oral administration)?
A: long-lasting antiallergic action

Q: And the “Antiallergic action compared with verapamil (in words)” value ([2]; latency periods of 12 and 24 hours, oral)?
A: substantially more powerful action

Q: What about the “Cardio-protective action (in words)” value [1] of the same molecule?
A: particularly powerful action

Q: And the ED33 [3]?
A: 9.6 mg/kg

Q: What about the “Lowering of systolic blood pressure, R.A. (relative activity; verapamil = 1.00)” value (“Lowering … (relative activity; verapamil = 1.00)” for short) (systolic blood pressure; 2 hrs) of the same molecule?
A: 0.93

Q: And the “Lowering … (relative activity; verapamil = 1.00)” value (systolic blood pressure; 6 hrs)?
A: 1.46

Q: What about the ED20 (systolic blood pressure; 2 hrs) of the same molecule?
A: 24.9 mg/kg

Q: What about the ED20 (systolic blood pressure; 6 hrs) of the same molecule?
A: 14.1 mg/kg

Q: What about the ED20 (systolic blood pressure; 24 hrs) of the same molecule?
A: 18.7 mg/kg

Q: What about the “Antihypertensive action (in words)” value (systolic blood pressure) of the same molecule?
A: still have an antihypertensive action

Q: How did the “Cardio-protective action (in words)” value [1] turn out when `CCCCCCCCCCCCC(C#N)(CCCN(C)CCc1ccccc1)c1ccccc1` (stereo not drawn) [Example 5, 1,7-Diphenyl-3-methylaza-7-cyano-nonadecane] was run?
A: particularly powerful action

Q: `CCCCCCCCCCCCCCCC(C#N)(CCCN(C)CCc1cccc(OC)c1)c1cccc(OC)c1` (stereo not drawn) [Example 6, 1,7-bis-(3-Methoxyphenyl)-3-methylaza-7-cyano-docosane] was tested. Which ED33 [3] did it give?
A: 49 mg/kg

Q: For `CCCCCCCCCCCCC(C#N)(CCCN(C)CCc1cccc(OC)c1)c1ccc(OC)c(OC)c1` (stereo not drawn) [Example 19, 1-(3-Methoxyphenyl)-3-methylaza-7-cyano-7-(3,4-dimethoxyphenyl)-nonadecane], which “Lowering … (relative activity; verapamil = 1.00)” value (systolic blood pressure; 2 hrs) is on record?
A: 3.09

Q: What about the “Lowering … (relative activity; verapamil = 1.00)” value (systolic blood pressure; 6 hrs) of the same molecule?
A: 1.04

Q: And the ED20 (systolic blood pressure; 2 hrs)?
A: 7.5 mg/kg

Q: And the ED20 (systolic blood pressure; 6 hrs)?
A: 19.8 mg/kg

Q: And the ED20 (systolic blood pressure; 24 hrs)?
A: 46.4 mg/kg

Q: How did the “Lowering … (relative activity; verapamil = 1.00)” value (systolic blood pressure; 2 hrs) turn out when `CCCCCCCCCCCCC(C#N)(CCCN(C)CCc1cccc(OC)c1)c1cc(OC)c(OC)c(OC)c1` (stereo not drawn) [Example 20, 1-(3-Methoxyphenyl)-3-methylaza-7-cyano-7-(3,4,5-trimethoxyphenyl)-nonadecane] was run?
A: 6.27

Q: And the “Lowering … (relative activity; verapamil = 1.00)” value (systolic blood pressure; 6 hrs)?
A: 3.12

Q: And the ED20 (systolic blood pressure; 2 hrs)?
A: 3.7 mg/kg

Q: And the ED20 (systolic blood pressure; 6 hrs)?
A: 6.6 mg/kg

Q: And the ED20 (systolic blood pressure; 24 hrs)?
A: 12.5 mg/kg

Q: What about the “Antihypertensive action (in words)” value (systolic blood pressure) of the same molecule?
A: still have an antihypertensive action

Q: Which results are given for `CCCCCCCCCCCC(C#N)(CCCN(C)CCc1cccc(OC)c1)c1cccc(OC)c1` (stereo not drawn) [Example 25, 1,7-bis-(3-Methoxyphenyl)-3-methylaza-7-cyano-octadecane]?
A: Lowering of systolic blood pressure, R.A. (relative activity; verapamil = 1.00) (systolic blood pressure; 2 hrs): 3.41; Lowering of systolic blood pressure, R.A. (relative activity; verapamil = 1.00) (systolic blood pressure; 6 hrs): 2.02; ED20 (systolic blood pressure; 2 hrs): 6.8 mg/kg; ED20 (systolic blood pressure; 6 hrs): 10.2 mg/kg; ED20 (systolic blood pressure; 24 hrs): 46.4 mg/kg

Q: `CCCCCCCCCCCCC(C#N)(CCCN(C)CCc1ccc(SCC)cc1)c1cccc(OC)c1` (stereo not drawn) [Example 42, 1-(4-Ethylmercaptophenyl)-3-methylaza-7-cyano-7-(3-methoxyphenyl)-nonadecane] was tested. Which “Lowering … (relative activity; verapamil = 1.00)” value (systolic blood pressure; 2 hrs) did it give?
A: 2.25

Q: And the ED20 (systolic blood pressure; 2 hrs)?
A: 0.3 mg/kg

Q: What about the ED20 (systolic blood pressure; 24 hrs) of the same molecule?
A: 58.3 mg/kg

Q: For `CCCCCCCCCCCCC(C#N)(CCCN(C)CCc1cc(OC)cc(OC)c1)c1cccc(OCC)c1` (stereo not drawn) [Example 70, 1-(3,5-Dimethoxyphenyl)-3-methylaza-7-cyano-7-(3-ethoxyphenyl)-nonadecane], which ED33 [3] is on record?
A: 119 mg/kg

Q: How did the ED33 [3] turn out when `CCCCCCCCCCCCC(C#N)(CCCNCCc1cccc(OC)c1)c1cccc(OC)c1` (stereo not drawn) [Example 75, 1,7-bis-(3-Methoxyphenyl)-3-aza-7-cyano-nonadecane] was run?
A: 90.2 mg/kg

Q: For `COc1ccc(CCN(C)CCCC(C#N)(c2ccc(OC)c(OC)c2)C(C)C)cc1OC` (stereo not drawn) [Verapamil, 1,7-bis-(3,4-dimethoxyphenyl)-3-methylaza-7-cyano-8-methyl-nonane, reference compound], which “% inhibition” value ([2]; latency period 2 hours) is on record?
A: 53%

Q: And the “% inhibition” value ([2]; latency period 6 hours)?
A: 50%

Q: And the “% inhibition” value ([2]; latency period 12 hours)?
A: 33%

Q: What about the “% inhibition” value ([2]; latency period 24 hours) of the same molecule?
A: 31%

Q: What about the ED20 (systolic blood pressure; 2 hrs) of the same molecule?
A: 23.2 mg/kg

Q: What about the ED20 (systolic blood pressure; 6 hrs) of the same molecule?
A: 20.6 mg/kg

Q: And the “Antihypertensive action (in words)” value (systolic blood pressure)?
A: ineffective
